# According to patent US7205332B2, “Deoxoartemisinin analogs, process for their preparation, and anticancer agent comprising them” (Industry-Academic Cooperation Foundation, Yonsei University, priority 2003, dated 2007):
# Where two headings read alike, the source gives them in different places.
# Tests used:
# [1] = test system: Bewo: human choriocarcinoma cell; test: micro-culture tetrazolium assay, in vitro cytotoxicity on Bewo; assay type: cell-based; settings: for IC50: read-out: In vitro cytotoxicities (IC50) Bewo
# [2] = test system: MCF7: human breast carcinoma cell; test: micro-culture tetrazolium assay, in vitro cytotoxicity on MCF7; assay type: cell-based
# [3] = test system: P388: mouse fibroblast leukemia cell; test: micro-culture tetrazolium assay, in vitro cytotoxicity on P388; assay type: cell-based; settings: for anticancer activity, fold higher than that of mitomycin: versus mitomycin
# [4] = test system: HT-29: human colorectal adenocarcinoma cell; test: micro-culture tetrazolium assay, in vitro cytotoxicity on HT-29; assay type: cell-based; settings: for IC50: read-out: In vitro cytotoxicities (IC50) HT-29
# Protocol: (§1) The anticancer activities of the deoxoartemisinin dimer and trimer of the present invention were measured by a known micro-culture tetrazolium assay (see Carmichel, J.; DeGraff, W. G; Gazdar, A. F.; Minna, J. D.; Mitchell, J. B., Evaluation of a Tetrazolium-based Semiautomated Colorimetric Assay: Assessment of Chemosensitivity testing, Cancer Res., 1987, 47, 936–42).
# [5] = test system: EL4: mouse thymoma cell; test: micro-culture tetrazolium assay, in vitro cytotoxicity on EL4; assay type: cell-based; settings: for IC50: read-out: In vitro cytotoxicities (IC50) EL4
# [6] = test system: SKOV3: human ovarian carcinoma cell; test: micro-culture tetrazolium assay, in vitro cytotoxicity on SKOV3; assay type: cell-based; settings: SK-OV-3, read-out: In vitro cytotoxicities (IC50) SKOV3
# Protocol: as §1
# [7] = water solubility; assay type: physicochemical
# [8] = test system: PANC-1: human pancreatic cancer cell; test: micro-culture tetrazolium assay, in vitro cytotoxicity on PANC-1; assay type: cell-based; settings: for IC50: PANC-1 human pancreatic cancer cell, read-out: In vitro cytotoxicities (IC50) PANC-1
# Protocol: as §1
# [9] = test system: A549: human lung cancer cell; test: micro-culture tetrazolium assay, in vitro cytotoxicity on A549; assay type: cell-based
# [10] = Bewo human choriocarcinoma cell
# [11] = MCF7 human breast carcinoma cell
# [12] = P388 mouse fibroblast leukemia cell
# [13] = MCF7 human breast carcinoma cell, read-out: In vitro cytotoxicities (IC50) MCF7
# [14] = P388 mouse fibroblast leukemia cell, read-out: In vitro cytotoxicities (IC50) P388
Molecule,"IC50 [1, 10]","IC50 [2, 13]","IC50 [3, 14]",IC50 [4],IC50 ([5]; EL4 mouse thymoma cell),IC50 [6],also measured
12-(4′-aminobutyl)deoxoartemisinin dimer [Compound (IVc′)],–,–,–,–,–,–,"In vitro cytotoxicities (IC50) Bewo [1, 10]: >20 µg/mL; In vitro cytotoxicities (IC50) MCF7 [2, 11]: >20 µg/mL; In vitro cytotoxicities (IC50) P388 [3, 12]: >20 µg/mL; In vitro cytotoxicities (IC50) HT-29 [4]: 20.20 µg/mL; In vitro cytotoxicities (IC50) EL4 ([5]; EL4 mouse thymoma cell): >20 µg/mL"
"COc1cccc2c1C(=O)c1c(O)c3c(c(O)c1C2=O)C[C@@](O)(C(=O)CO)C[C@@H]3O[C@H]1C[C@H](N)[C@H](O)[C@H](C)O1 [Adriamycin, reference compound]",6.24 µg/mL,0.12 µg/mL,0.39 µg/mL,0.1 µg/mL,0.67 µg/mL,–,–
"C[C@H]1[C@@H](CCSCC[C@H]2O[C@@H]3O[C@@]4(C)CC[C@H]5[C@H](C)CC[C@@H]([C@H]2C)[C@@]35OO4)O[C@@H]2O[C@@]3(C)CC[C@H]4[C@H](C)CC[C@@H]1[C@@]24OO3 [Compound (IVa1), 12-(2′-ethylsulfide)deoxoartemisinin dimer]",14.2 µg/mL,0.017 µg/mL,0.4 µg/mL,0.24 µg/mL,0.23 µg/mL,–,"anticancer activity, fold higher than that of mitomycin ([3]; P388): at least 4 fold"
"CC1CCC2C(C)C(CCS(=O)(=O)CCC3OC4OC5(C)CCC6C(C)CCC(C3C)C46OO5)OC3OC4(C)CCC1C32OO4 (centres unmarked) [Compound (IVa2), 12-(2′-sulfonylethyl)deoxoartemisinin dimer]",–,–,–,–,–,–,"In vitro cytotoxicities (IC50) Bewo [1, 10]: 1.04 µg/mL; anticancer activity, fold higher than that of taxol and adriamycin ([1]; Bewo, versus taxol and adriamycin): at least 6 fold; In vitro cytotoxicities (IC50) MCF7 [2, 11]: 0.025 µg/mL; In vitro cytotoxicities (IC50) P388 [3, 12]: 5.60 µg/mL; In vitro cytotoxicities (IC50) HT-29 [4]: 0.38 µg/mL; In vitro cytotoxicities (IC50) EL4 ([5]; EL4 mouse thymoma cell): 0.54 µg/mL"
"C[C@H]1[C@@H](CCNC(=O)CC[C@H]2O[C@@H]3O[C@@]4(C)CC[C@H]5[C@H](C)CC[C@@H]([C@H]2C)[C@@]35OO4)O[C@@H]2O[C@@]3(C)CC[C@H]4[C@H](C)CC[C@@H]1[C@@]24OO3 [Compound (IVc), 12-(2′-amidethyl)deoxoartemisinin Dimer]",7.5 µg/mL,0.005 µg/mL,10.4 µg/mL,0.69 µg/mL,6.29 µg/mL,12.6 µg/mL,"anticancer activity, fold higher than that of adriamycin ([2]; MCF7, versus adriamycin): at least 24 fold; anticancer activity, fold higher than that of mitomycin ([2]; MCF7, versus mitomycin): at least 200 fold"
"C[C@H]1[C@@H](CCNC(=O)CC[C@H](N)C(=O)NCC[C@H]2O[C@@H]3O[C@@]4(C)CC[C@H]5[C@H](C)CC[C@@H]([C@H]2C)[C@@]35OO4)O[C@@H]2O[C@@]3(C)CC[C@H]4[C@H](C)CC[C@@H]1[C@@]24OO3 [Compound (IVd), 12-[2′-(N-glutamic)-α,β-amide]deoxoartemisinin dimer]",> 20 µg/mL,15.3 µg/mL,15.6 µg/mL,6.5 µg/mL,16.5 µg/mL,–,water solubility relative to artemisinin ([7]; compared with artemisinin): five times more water soluble; solubility ([7]; water): 5210 µg/mL
"C[C@H]1[C@@H](CCNC(=O)CC[C@H](NC(=O)CC[C@H]2O[C@@H]3O[C@]4(C)CC[C@H]5[C@H](C)CC[C@@H]([C@H]2C)[C@@]35OO4)C(=O)NCC[C@H]2O[C@@H]3O[C@]4(C)CC[C@H]5[C@H](C)CC[C@@H]([C@H]2C)[C@@]35OO4)O[C@@H]2O[C@]3(C)CC[C@H]4[C@H](C)CC[C@@H]1[C@@]24OO3 [Compound (IVe), deoxoartemisinin trimer]",18.3 µg/mL,0.017 µg/mL,0.12 µg/mL,0.09 µg/mL,1.07 µg/mL,11.2 µg/mL,"IC50 [8]: 2.69 µg/mL; anticancer activity, fold higher than that of taxol ([8]; human pancreatic cancer cell, versus taxol): at least 2 fold; IC50 ([9]; A549 human lung cancer cell, read-out: In vitro cytotoxicities (IC50) A549): 2.45 µg/mL; anticancer activity, fold higher than that of adriamycin ([3]; P388, versus adriamycin): at least 3 fold; anticancer activity, fold higher than that of mitomycin ([3]; P388): at least 12 fold; anticancer activity, fold higher than that of taxol ([3]; P388, versus taxol): at least 20 fold; melting point: 138 °C"
"CO[C@@]12[C@H](COC(N)=O)C3=C(C(=O)C(C)=C(N)C3=O)N1C[C@@H]1N[C@@H]12 [Mitomycin, reference compound]",–,–,–,0.02 µg/mL,–,–,"IC50 ([1]; Homo sapiens, BeWo): 0.85 µg/mL; IC50 ([2]; Homo sapiens, MCF7, read-out: In vitro cytotoxicities (IC50) MCF7): 0.93 µg/mL; IC50 ([9]; Homo sapiens, A549, read-out: In vitro cytotoxicities (IC50) A549): 1.85 µg/mL; IC50 ([3]; Mus musculus, P388, read-out: In vitro cytotoxicities (IC50) P388): 1.5 µg/mL; IC50 ([5]; Mus musculus): 3.94 µg/mL"
"CC(=O)O[C@H]1C(=O)[C@@]2(C)[C@H]([C@H](OC(=O)c3ccccc3)[C@]3(O)C[C@H](OC(=O)[C@H](O)[C@@H](NC(=O)c4ccccc4)c4ccccc4)C(C)=C1C3(C)C)[C@]1(OC(C)=O)CO[C@@H]1C[C@@H]2O [Taxol, reference compound]",7.39 µg/mL,–,2.27 µg/mL,0.01 µg/mL,1.34 µg/mL,12.3 µg/mL,IC50 [8]: 5.76 µg/mL
